Assay results reported in patent US9856225B2, “Substituted phenazines as antimicrobial agents” (University of Florida Research Foundation, Incorporated, priority 2013, dated 2018).
Values joined by “and” are separate entries in the source; they are usually repeats but may differ in a detail not shown here. Equal entries are not always repeated. Where two headings read alike, the source gives them in different places.

Experiments:
Assay type in all cases: cell-based
[1] = test system: Staphylococcus aureus (ATCC 25923); experiment: MIC broth microdilution (CLSI), Luria Broth; conditions: for fold more potent than compound 1: from MIC
Summary of the method: (§1)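 Two-fold serial dilutions (0.10–100 μM, eleven points) in Luria Broth, each well inoculated with 10^5 cells from log-phase culture (OD600 0.5), per CLSI broth microdilution. DMSO vehicle up to 1% v/v as negative control; kanamycin positive control for the staphylococci.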

[2] = test system: Staphylococcus epidermidis (ATCC 12228); experiment: MIC broth microdilution (CLSI), Luria Broth; conditions: for MIC: ATCC12228, Table 1, ATCC 12228, read-out: Staphylococcus epidermidis MIC; for fold more potent than compound 1: from MIC
Summary of the method: as §1

[3] = test system: Acinetobacter baumannii (ATCC 19606); experiment: Planktonic growth (OD600) in biofilm inhibition assay; conditions: for inhibition of growth at 100 µM: Acinetobacter baumannii, ATCC19606, 24 h, A. baumannii ATCC 19606, * = no growth inhibition at 200 μM, read-out: % Growth Inhibition at 100 μM
Description: Each well was inoculated with ˜7×10^6 colony forming units per milliliter (corresponding to an OD600 of 0.01 prepared directly from an overnight culture). A lid was placed on the 96-well plate which was wrapped in suran wrap, placed in a humidifying chamber and incubated under static conditions at 37° C. for 24 hours. Following incubation, the media and planktonic bacteria were then removed from 96-well plates and the wells were then washed with water. The bacterial biofilms within the microtiter wells were stained with 200 μL of an aqueous 0.1% crystal violet solution that was allowed to stand for 10-20 minutes. The crystal violet stain was then removed, the wells were rinsed with water and dried. The crystal violet stain that remained on the inside of the wells (i.e., stained bacterial biofilm) on the inside of the wells was solubilized by the addition of 200 μL ethanol and absorbance was read at OD540 using a spectrophotometer. […] Single data points for all compounds and DMSO controls were tested in two replicate rows in 96-well plates and corresponding absorbance readings were averaged for the quantification of planktonic growth and biofilm formation. Reported percent biofilm inhibition was determined by the comparison of compound treated wells (the average of the two replicate wells) versus vehicle control wells without compound following background subtraction (i.e., an empty, untreated well) and reported from 2 to 4 independent overnight cultures. DMSO was serially diluted at the same concentration as test compounds with a top concentration of 1% v/v.
The bromophenazines were also evaluated against the Gram-negative bacterium Acinetobacter baumannii in order to identify biofilm modulating small molecules against this emerging pathogen. Acinetobacter baumannii is notorious for its ability to persist as bacterial biofilms on hospital surfaces, giving rise to many multidrug-resistant nosocomial infections. Clinical isolates of A. baumannii have been identified that are resistant to every class of antibiotic clinically used. The bromophenazines were evaluated against Acinetobacter baumannii ATCC 19606 in biofilm inhibition assays. Bromophenazines were allowed to incubate in 96-well plates with Acinetobacter baumannii (˜7×10^6 CFUmL^−1 by adjusting an overnight culture to an OD600˜0.01) for 24 hours at 37° C. using Mueller-Hinton broth followed by spectrophometer readings of each plate to evaluate planktonic growth (OD600) and biofilm formation (OD540 after crystal violet stain of biofilms inside microtiter wells). […] This biofilm inhibition with activation of planktonic growth activity was dose-dependent with bromophenazine 17a (see FIG. 20).

[4] = test system: Staphylococcus aureus (ATCC 25923) established biofilm; experiment: Biofilm dispersion, crystal violet staining; conditions: for EC50: Staphylococcus aureus, read-out: Biofilm Dispersion EC50
Description: Biofilm Dispersion Protocol for Staphylococcus aureus (ATCC 25923): A single colony grown on tryptic soy agar (TSA) solid medium is amplified in 2 milliliters of tryptic soy broth (TSB) medium with 0.5% glucose to an OD600=0.8-1.0. The bacterial suspension was then diluted to 1×10^6 CFU/mL in TSB with 0.5% glucose. Sterile 96-well flat-bottomed polystyrene plates (0.1% gelatin coated overnight) were then filled with 200 μL of this bacterial suspension. The plates were then covered and incubated for 24 hours at 37° C. Following this, the contents of the wells were discarded and washed with 200 μL PBS (one time). Then serial, two-fold dilutions of bromophenazine small molecules in 200 μL PBS were delivered into each well. The plates were then covered and incubated for another 24 hours at room temperature. After this incubation time, the plates were gently washed with water three times (wells were rinsed by submerging the entire plates in a tub of cold, running tap water). Remaining biofilms were then fixed with 200 μL of methanol for 15 minutes. The plates were emptied and left to air dry. Upon drying, 100 μL of 1% crystal violet was added to each well for 10 minutes, then washed three times with water and again air dried. For quantitative assessment of biofilm formation 100 μL per well of bleaching solution (methanol:glacial acetic acid:water (v/v/v)=4:1:5 with rotary shaking for 1 hour) was used. Remaining biofilm was measured using a spectrophotometer (absorbance readings at 540 nm).
Further microdilution MIC assays were carried out for 11, 21-26, and 4a-29a against Staphylococcus aureus (ATCC 25923) in Luria Broth media (at ˜10^5 CFUmL^−1) to establish the level of growth inhibition for each compound (see FIGS. 5-13). […] Differentiation of a “biofilm inhibitor” from an antibacterial agent was carried out according to the ratio of MIC/IC50 of biofilm inhibition (based on crystal violet staining dose-response). […] Following the biofilm inhibition screen, bromophenazines 12a, 14a, 18a and 20a were evaluated in three independent biofilm inhibition experiments against Staphylococcus aureus to obtain replicate data. […] In addition to inhibiting biofilm formation, small molecules that are able to disperse or clear preexisting bacterial biofilms would be highly valuable. Six of the bromophenazine analogues (11, 4a, 8a, 23a, 27a, 28a; see Table 2 and FIGS. 18-19) were evaluated in biofilm dispersion assays by allowing Staphylococcus aureus biofilms to establish in 96-well plates for 24 hours at 37° C. After this incubation time, the media and planktonic cells were removed followed by a wash of the 96-well plates with water. Phosphate buffered saline (PBS) was then added to the 96-well plate followed by the addition of bromophenazine compounds (with 2-fold serial dilutions of each compound tested). The resulting plates were then allowed to incubate at room temperature for 24 hours and stained with crystal violet to quantify biofilm dispersion.

[5] = Staphylococcus aureus, ATCC25923, Table 1, ATCC 25923, range tested 0.10 to 100 μM, read-out: Staphylococcus aureus MIC
[6] = Staphylococcus aureus, ATCC25923, Table 1, ATCC 25923, read-out: Staphylococcus aureus MIC
[7] = Staphylococcus aureus, ATCC25923, Table 2, S. aureus ATCC 25923, Luria Broth, read-out: MIC
[8] = Table 2, S. aureus ATCC 25923, Luria Broth, read-out: MIC
[9] = ATCC25923, S. aureus ATCC 25923, 24 h in PBS at room temperature

| Compound | MIC [1, 7] [µM] | MIC [1, 8] [µM] | EC50 [4, 9] [nM] | inhibition of growth at 100 µM ([3]; 100 μM) [%] | Biofilm Dispersal Agent? ([4]; S. aureus ATCC 25923) | also measured |
| --- | --- | --- | --- | --- | --- | --- |
| CC(=O)Oc1c(Br)cc(Br)c2nc3ccccc3nc12 [Compound 21, 2,4-Dibromophenazin-1-yl acetate] | 0.78 to 1.56 |  |  | 83 ± 2 |  | MIC [1, 5]: 0.78 to 1.56 µM; MIC [1, 6]: 0.31 to 0.62 µg/mL; fold more potent than compound 1 ([1]; Staphylococcus aureus): 32 fold; MIC [2]: 0.78 µM and 0.31 µg/mL; fold more potent than compound 1 [2]: 64 fold |
| O=C(Oc1c(Br)cc(Br)c2nc3ccccc3nc12)c1cccc([N+](=O)[O-])c1 [Compound 15a] | 0.78 to 1.56 | 1.56 |  | 3 ± 4 |  |  |
| O=C(OCCc1ccccc1)Oc1c(Br)cc(Br)c2nc3ccccc3nc12 [Compound 8a] | 0.78 to 1.56 | 1.56 | > 100000 | 76 ± 10 | No |  |
| O=C(CCCC(=O)Oc1c(Br)cc(Br)c2nc3ccccc3nc12)Oc1c(Br)cc(Br)c2nc3ccccc3nc12 [Compound 5a] | > 100 |  |  | -1 ± 6 |  |  |
| O=C(Oc1c(Br)cc(Br)c2nc3ccccc3nc12)c1ccc(Br)cc1 [Compound 12a] | > 100 |  |  | 3 ± 3 |  |  |
| Oc1c(Br)cc(Br)c2nc3ccccc3nc12 [Compound 11, 2,4-Dibromophenazin-1-ol] | 1.56 |  |  | 86 ± 3 | Yes | MIC [1, 5]: 1.56 µM; MIC [1, 6]: 0.55 µg/mL; fold more potent than compound 1 ([1]; Staphylococcus aureus): 32 fold; MIC [2]: 0.78 µM to 1.56 µM and 0.28 µg/mL to 0.55 µg/mL; fold more potent than compound 1 [2]: 32 fold; EC50 ([4]; ATCC25923, 24 h): 29300 nM |
| O=C(Oc1c(Br)cc(Br)c2nc3ccccc3nc12)c1ccccc1 [Compound 23, 2,4-Dibromophenazin-1-yl benzoate] | 1.56 |  |  | -13 ± 7 |  | MIC [1, 5]: 1.56 µM; MIC [1, 6]: 0.72 µg/mL; MIC [2]: 1.56 µM and 0.72 µg/mL; increase in planktonic growth ([3]; 100 μM, OD600): ~15%; planktonic growth inhibition at 200 μM ([3]; 200 μM): did not inhibit planktonic growth |
| O=C(Oc1c(Br)cc(Br)c2nc3ccccc3nc12)c1ccc(Cl)cc1 [Compound 14a] | > 100 |  |  | 2 ± 3 |  |  |

The next lines start with results.

| MIC [1, 7] [µM] | MIC [1, 8] [µM] | EC50 [4, 9] [nM] | Compound | inhibition of growth at 100 µM ([3]; 100 μM) [%] | Biofilm Dispersal Agent? ([4]; S. aureus ATCC 25923) | also measured |
| --- | --- | --- | --- | --- | --- | --- |
| 0.78 to 1.56 | 0.78 | > 100000 | O=C(OCC(Cl)(Cl)Cl)Oc1c(Br)cc(Br)c2nc3ccccc3nc12 [Compound 27a] | 68 ± 4 | No |  |
| > 100 |  |  | Cc1ccc(C(=O)Oc2c(Br)cc(Br)c3nc4ccccc4nc23)cc1 [Compound 18a] | -6 ± 6 |  |  |
| 0.78 to 1.56 | 1.56 | 2600 | CCC(=O)Oc1c(Br)cc(Br)c2nc3ccccc3nc12 [Compound 4a] | 82 ± 1 | Yes |  |
| 0.78 to 1.56 | 0.78 | 1400 | O=C(Oc1c(Br)cc(Br)c2nc3ccccc3nc12)c1ccco1 [Compound 23a] | 80 ± 1 | Yes |  |
| 0.78 to 1.56 | 1.56 | 2900 | COC(=O)Oc1c(Br)cc(Br)c2nc3ccccc3nc12 [Compound 28a] | 92 ± 1 | Yes |  |
